# Assay results as given in patent US20260265251A1 (priority 2023, published 2026).
# Columns and labels:
# A2058 cells = test: A2058 cell proliferation assay; assay type: cell-based; details: Homo sapiens, 96 hours, CellTiter-Glo
# SK-MEL-3 cells = test: SK-MEL-3 cell proliferation assay; assay type: cell-based; details: Homo sapiens, SK-MEL3; SK-MEL-3 cells, 72 hours, CellTiter-Glo; read-out: SK-MEL-3 IC50
smiles,measurement,setting,value
"O=c1[nH]c2cc3c(nc2[nH]1)CCC(c1cnn(C(F)F)c1Cl)C3 (racemic) [Example 64, 7-(5-chloro-1-(difluoromethyl)-1H-pyrazol-4-yl)-1,3,5,6,7,8-hexahydro-2H-imidazo[4,5-b]quinolin-2-one]",IC50,A2058 cells,0.4 nM
same,IC50,SK-MEL-3 cells,0.08 nM
"O=c1[nH]c2cc3cc(-c4ncn(C(F)F)c4Cl)ccc3nc2[nH]1 [Example 37, 7-(5-chloro-1-(difluoromethyl)-1H-imidazol-4-yl)-1,3-dihydro-2H-imidazo[4,5-b]quinolin-2-one]",IC50,A2058 cells,1 nM
"O=c1[nH]c2cc3cc(-c4ccc(Cl)nc4OC(F)F)ccc3nc2[nH]1 [Example 39, 7-(6-chloro-2-(difluoromethoxy)pyridin-3-yl)-1,3-dihydro-2H-imidazo[4,5-b]quinolin-2-one]",IC50,A2058 cells,3.3 nM
"CNc1ccc(-c2ccc3nc4[nH]c(=O)[nH]c4cc3c2)c(Cl)n1 [Example 40, 7-(2-chloro-6-(methylamino)pyridin-3-yl)-1,3-dihydro-2H-imidazo[4,5-b]quinolin-2-one]",IC50,A2058 cells,8 nM
"CNc1nc(Cl)ccc1-c1ccc2nc3[nH]c(=O)[nH]c3cc2c1 [Example 41, 7-(6-chloro-2-(methylamino)pyridin-3-yl)-1,3-dihydro-2H-imidazo[4,5-b]quinolin-2-one]",IC50,A2058 cells,61 nM
"O=c1[nH]c2cc3cc(-c4cnn(C(F)F)c4OC(F)F)ccc3nc2[nH]1 [Example 42, 7-(5-(difluoromethoxy)-1-(difluoromethyl)-1H-pyrazol-4-yl)-1,3-dihydro-2H-imidazo[4,5-b]quinolin-2-one]",IC50,A2058 cells,0.4 nM
"[2H]C([2H])([2H])c1c(-c2ccc3nc4[nH]c(=O)[nH]c4cc3c2)cnn1C(F)F [Example 45, 7-(1-(difluoromethyl)-5-(methyl-d3)-1H-pyrazol-4-yl)-1,3-dihydro-2H-imidazo[4,5-b]quinolin-2-one]",IC50,A2058 cells,0.19 nM
"O=c1[nH]c2cc3c(nc2[nH]1)CCC(c1ccc(F)cc1)C3 (stereo not drawn) [Example 57, 7-(4-fluorophenyl)-1,3,5,6,7,8-hexahydro-2H-imidazo[4,5-b]quinolin-2-one]",IC50,A2058 cells,32.2 nM
"O=c1[nH]c2cc3c(nc2[nH]1)CCN(c1nc(C(F)(F)F)ccc1F)C3 [Example 60, 7-(3-fluoro-6-(trifluoromethyl)pyridin-2-yl)-1,3,5,6,7,8-hexahydro-2H-imidazo[4,5-b][1,6]naphthyridin-2-one]",IC50,A2058 cells,1.7 nM
"O=c1[nH]c2cc3c(nc2[nH]1)CCN(c1ccc(F)c(C(F)(F)F)n1)C3 [Example 61, 7-(5-fluoro-6-(trifluoromethyl)pyridin-2-yl)-1,3,5,6,7,8-hexahydro-2H-imidazo[4,5-b][1,6]naphthyridin-2-one]",IC50,A2058 cells,1.9 nM
"O=c1[nH]c2cc3c(nc2[nH]1)CCN(c1ccc(Cl)nc1C(F)(F)F)C3 [Example 62, 7-(6-chloro-2-(trifluoromethyl)pyridin-3-yl)-1,3,5,6,7,8-hexahydro-2H-imidazo[4,5-b][1,6]naphthyridin-2-one]",IC50,A2058 cells,31.9 nM
"O=c1[nH]c2cc3c(nc2[nH]1)CCC(c1cn(C(F)F)nc1Cl)C3 (stereo not drawn) [Example 63, 7-(3-chloro-1-(difluoromethyl)-1H-pyrazol-4-yl)-1,3,5,6,7,8-hexahydro-2H-imidazo[4,5-b]quinolin-2-one]",IC50,A2058 cells,8.1 nM
"O=c1[nH]c2cc3c(Cl)c(-c4ccc(F)cc4)ccc3nc2[nH]1 [Example 66, 8-chloro-7-(4-fluorophenyl)-1,3-dihydro-2H-imidazo[4,5-b]quinolin-2-one]",IC50,SK-MEL-3 cells,0.9 nM
"O=c1[nH]c2cc3c(Cl)c(-c4ccc(C(F)F)cc4)ccc3nc2[nH]1 [Example 67, 8-chloro-7-(4-(difluoromethyl)phenyl)-1,3-dihydro-2H-imidazo[4,5-b]quinolin-2-one]",IC50,SK-MEL-3 cells,0.4 nM
"Cc1ccc(-c2ccc3nc4[nH]c(=O)[nH]c4cc3c2F)cc1 [Example 68, 8-fluoro-7-(p-tolyl)-1,3-dihydro-2H-imidazo[4,5-b]quinolin-2-one]",IC50,SK-MEL-3 cells,2 nM
"Cc1ccc(-c2cc3cc4[nH]c(=O)[nH]c4nc3cc2Cl)cc1 [Example 69, 6-chloro-7-(p-tolyl)-1,3-dihydro-2H-imidazo[4,5-b]quinolin-2-one]",IC50,SK-MEL-3 cells,9.7 nM
"Cc1ccc(-c2ccc3nc4[nH]c(=O)[nH]c4cc3c2Cl)nc1 [Example 70, 8-chloro-7-(5-methylpyridin-2-yl)-1,3-dihydro-2H-imidazo[4,5-b]quinolin-2-one]",IC50,SK-MEL-3 cells,2.9 nM
"O=c1[nH]c2cc3c(Cl)c(-c4ncc(F)cn4)ccc3nc2[nH]1 [Example 71, 8-chloro-7-(5-fluoropyrimidin-2-yl)-1,3-dihydro-2H-imidazo[4,5-b]quinolin-2-one]",IC50,SK-MEL-3 cells,8.2 nM
"COc1ccc(-c2ccc3nc4[nH]c(=O)[nH]c4cc3c2Cl)cn1 [Example 72, 8-chloro-7-(6-methoxypyridin-3-yl)-1,3-dihydro-2H-imidazo[4,5-b]quinolin-2-one]",IC50,SK-MEL-3 cells,1 nM
"O=c1[nH]c2cc3c(Cl)c(-c4ccc(Cl)nn4)ccc3nc2[nH]1 [Example 73, 8-chloro-7-(6-chloropyridazin-3-yl)-1,3-dihydro-2H-imidazo[4,5-b]quinolin-2-one]",IC50,SK-MEL-3 cells,1.6 nM
"O=c1[nH]c2cc3c(Cl)c(-c4ccc(C(F)F)cn4)ccc3nc2[nH]1 [Example 74, 8-chloro-7-(5-(difluoromethyl)pyridin-2-yl)-1,3-dihydro-2H-imidazo[4,5-b]quinolin-2-one]",IC50,SK-MEL-3 cells,0.7 nM
"N#Cc1ccc(-c2ccc3nc4[nH]c(=O)[nH]c4cc3c2Cl)cc1 [Example 75, 8-chloro-7-(4-cyanophenyl)-1,3-dihydro-2H-imidazo[4,5-b]quinolin-2-one]",IC50,SK-MEL-3 cells,0.5 nM
"O=c1[nH]c2cc3c(Cl)c(N4CC5(CCC5)C4)ccc3nc2[nH]1 [Example 76, 8-chloro-7-(2-azaspiro[3.3]heptan-2-yl)-1,3-dihydro-2H-imidazo[4,5-b]quinolin-2-one]",IC50,SK-MEL-3 cells,2.3 nM
"O=c1[nH]c2cc3c(OC(F)F)c(-c4ccc(F)cc4)ccc3nc2[nH]1 [Example 77, 8-(difluoromethoxy)-7-(4-fluorophenyl)-1,3-dihydro-2H-imidazo[4,5-b]quinolin-2-one]",IC50,SK-MEL-3 cells,4.4 nM
"COc1c(-c2ccc(F)cc2)ccc2nc3[nH]c(=O)[nH]c3cc12 [Example 78, 8-(methoxy)-7-(4-fluorophenyl)-1,3-dihydro-2H-imidazo[4,5-b]quinolin-2-one]",IC50,SK-MEL-3 cells,0.9 nM
"Cc1ccc(-c2ccc3nc4[nH]c(=O)[nH]c4cc3c2C(F)(F)F)cc1 [Example 79, 7-(p-tolyl)-8-(trifluoromethyl)-1,3-dihydro-2H-imidazo[4,5-b]quinolin-2-one]",IC50,SK-MEL-3 cells,0.4 nM
"O=c1[nH]c2cc3c(C(F)(F)F)c(-c4ccccc4)ccc3nc2[nH]1 [Example 80, 7-phenyl-8-(trifluoromethyl)-1,3-dihydro-2H-imidazo[4,5-b]quinolin-2-one]",IC50,SK-MEL-3 cells,0.5 nM
"O=c1[nH]c2cc3c(Cl)c(N4CCC5(CC4)CC5)ccc3nc2[nH]1 [Example 81, 8-chloro-7-(6-azaspiro[2.5]octan-6-yl)-1,3-dihydro-2H-imidazo[4,5-b]quinolin-2-one]",IC50,SK-MEL-3 cells,9.7 nM
"CCC1=CCN(c2ccc3nc4[nH]c(=O)[nH]c4cc3c2Cl)CC1 [Example 82, 8-chloro-7-(4-ethyl-3,6-dihydropyridin-1(2H)-yl)-1,3-dihydro-2H-imidazo[4,5-b]quinolin-2-one]",IC50,SK-MEL-3 cells,509 nM
"O=c1[nH]c2cc3c(Cl)c(-c4ccc(F)cc4Cl)ccc3nc2[nH]1 [Example 83, 8-chloro-7-(2-chloro-4-fluorophenyl)-1,3-dihydro-2H-imidazo[4,5-b]quinolin-2-one]",IC50,SK-MEL-3 cells,0.4 nM
"O=c1[nH]c2cc3c(C(F)(F)F)c(-c4ccc(F)cc4)ccc3nc2[nH]1 [Example 84, 7-(4-fluorophenyl)-8-(trifluoromethyl)-1,3-dihydro-2H-imidazo[4,5-b]quinolin-2-one]",IC50,SK-MEL-3 cells,1.2 nM
"COc1c(-c2ccc(F)cc2Cl)ccc2nc3[nH]c(=O)[nH]c3cc12 [Example 85, 7-(2-chloro-4-fluorophenyl)-8-methoxy-1,3-dihydro-2H-imidazo[4,5-b]quinolin-2-one]",IC50,SK-MEL-3 cells,0.3 nM
"O=c1[nH]c2cc3c(Cl)c(-c4cn(C(F)F)nc4Cl)ccc3nc2[nH]1 [Example 87, 8-chloro-7-(3-chloro-1-(difluoromethyl)-1H-pyrazol-4-yl)-1,3-dihydro-2H-imidazo[4,5-b]quinolin-2-one]",IC50,A2058 cells,2 nM
"O=c1[nH]c2cc3cc(-c4cnn(C(F)F)c4Cl)c(Cl)cc3nc2[nH]1 [Example 88, 6-chloro-7-(5-chloro-1-(difluoromethyl)-1H-pyrazol-4-yl)-1,3-dihydro-2H-imidazo[4,5-b]quinolin-2-one]",IC50,A2058 cells,9.1 nM
"O=c1[nH]c2cc3cc(-c4cn(C(F)F)nc4Cl)c(Cl)cc3nc2[nH]1 [Example 89, 6-chloro-7-(3-chloro-1-(difluoromethyl)-1H-pyrazol-4-yl)-1,3-dihydro-2H-imidazo[4,5-b]quinolin-2-one]",IC50,A2058 cells,18.8 nM
"O=c1[nH]c2cc3c(Cl)c(-n4ccc(C(F)(F)F)n4)ccc3nc2[nH]1 [Example 90, 8-chloro-7-(3-(trifluoromethyl)-1H-pyrazol-1-yl)-1,3-dihydro-2H-imidazo[4,5-b]quinolin-2-one]",IC50,SK-MEL-3 cells,3.4 nM
"COc1ncc(N2CCc3nc4[nH]c(=O)[nH]c4cc3C2)cc1C(F)(F)F [Example 91, 7-(6-methoxy-5-(trifluoromethyl)pyridin-3-yl)-1,3,5,6,7,8-hexahydro-2H-imidazo[4,5-b][1,6]naphthyridin-2-one]",IC50,SK-MEL-3 cells,281 nM
"Cc1ccc(-c2ccc3nc4[nH]c(=O)[nH]c4nc3c2Cl)cc1 [Example 92, 5-chloro-6-(p-tolyl)-1,3-dihydro-2H-imidazo[4,5-b]quinoxalin-2-one]",IC50,SK-MEL-3 cells,88.2 nM
"Cn1c(=O)[nH]c2nc3ccc(-c4ccc(F)cc4)c(Cl)c3cc21 [Example 93, 8-chloro-7-(4-fluorophenyl)-1-methyl-1,3-dihydro-2H-imidazo[4,5-b]quinolin-2-one]",IC50,SK-MEL-3 cells,8.7 nM
"Cc1ccc(-c2ccc3nc4[nH]c(=O)oc4cc3c2Cl)cc1 [Example 94, 8-chloro-7-(p-tolyl)oxazolo[4,5-b]quinolin-2(3H)-one]",IC50,SK-MEL-3 cells,258 nM
"Cc1ccc(-c2ccc3nc4c(cc3c2Cl)C(=O)C(=O)N4)cc1 [Example 95, 5-chloro-6-(p-tolyl)-1H-pyrrolo[2,3-b]quinolin-2,3-dione]",IC50,SK-MEL-3 cells,55.5 nM
